Paper PMC12514245, “Impaired migration and lung invasion of human melanoma by a novel small molecule targeting the transmembrane domain of death receptor p75^NTR” (EMBO Molecular Medicine, 2025)
“And” between values parts separate entries of the source, which are not always exact repeats. Equal entries are not always repeated. “Also recorded” adds a separate entry of the source.

Columns and labels:
α2β3 integrin TMD = assay: AraTM assay, α2β3 integrin TMD; assay type: cell-based; settings: for GFP/OD630, A2b, mean: N=3
[1] = target: TMD of TNF receptor 2 (TNFR2) (Homo sapiens, UniProt P20333); assay: 2D NMR chemical shift perturbation, TNFR2 TMD in bicelles; assay type: binding; settings: 4 molar excess compound
Chain of TMD of TNF receptor 2 (TNFR2) (P20333 258-290 limits assumed): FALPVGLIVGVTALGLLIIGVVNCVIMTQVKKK

[2] = target: T1, fascin/p75^NTR interaction (Homo sapiens, UniProt P08138); assay: Co-immunoprecipitation of fascin with p75NTR in A875 cells; assay type: cell-based; settings: 1 μM; NGF 100 ng/ml
T1 construct: endogenous in cells; host or cells: A875-NT (and A875 sh-p75NTR knock-down control)
T1 sequence (P08138 29-427): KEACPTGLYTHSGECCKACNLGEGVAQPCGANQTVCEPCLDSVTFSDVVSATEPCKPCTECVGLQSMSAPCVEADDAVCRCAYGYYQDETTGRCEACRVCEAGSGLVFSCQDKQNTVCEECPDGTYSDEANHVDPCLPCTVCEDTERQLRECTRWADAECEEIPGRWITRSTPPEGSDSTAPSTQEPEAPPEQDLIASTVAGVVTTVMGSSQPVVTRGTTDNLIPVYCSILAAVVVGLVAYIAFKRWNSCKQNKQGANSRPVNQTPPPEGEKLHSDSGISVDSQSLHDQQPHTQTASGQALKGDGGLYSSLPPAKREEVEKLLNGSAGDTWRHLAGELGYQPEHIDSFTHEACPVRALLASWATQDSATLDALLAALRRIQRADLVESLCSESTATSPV
Procedure: For co-immunoprecipitation analysis of p75^NTR/fascin interactions, A875 sh-p75^NTR and A875-NT cells were plated in a 10 cm tissue culture dish at a confluency of 3 × 10^6 cells/dish in normal growth media. Twenty-four hours after plating, the cells were treated with 1 μM 4A22 and NGF (100 ng/ml) for 12 h prior to harvest and lysis in lysis buffer (50 mM Tris/HCl pH 7.5, 1 mM EDTA, 270 mM Sucrose, 1% (v/v) Triton X-100, 0.1% (v/v) 2-mercaptoethanol and 60 mM n-Octyl-β-D glucopyranoside) containing protease inhibitor cocktail. The cellular extracts were then centrifuged at 4 °C top speed on a benchtop centrifuge for 1 min and the supernatant was collected. For immunoprecipitation, A875 cell extracts were incubated for 16 h at 4 °C on a rotating wheel with 0.8 μg of anti-p75^NTR antibody (ANT-007, Alomone) and then incubated with Sepharose protein-G beads (GE Healthcare). The beads were collected by brief centrifugation (2 min, 2500 rpm, 4 °C), washed three times with 1 ml of Wash Buffer (with composition same as the lysis buffer). After the last wash, pelleted beads were aspirated off the wash buffer followed by addition of Laemmli sample buffer and analysis by SDS–PAGE followed by Western Blot using anti-fascin antibody (MA5-11483, Invitrogen).

[3] = tested on: A875-NT melanoma xenograft; assay: Melanoma lung invasion assay, A875-NT, delayed treatment 3 weeks after cell injection; assay type: in vivo, SCID mice
Procedure: Finally, we investigated whether delayed administration of Np75-4A22 was able to affect engraftment and growth of metastatic tumors in the lung. To this end, drug treatment (orally at 200 mg/kg) was initiated 3 weeks after intravenous injection of A875-NT or A875-shp75 cells in female SCID mice and continued for additionally 4 weekly cycles (5 days on/2 days off) as above (Fig. 8E). Metastatic spread to the lungs was monitored weekly by bioluminescent imaging of luciferase-expressing melanoma cells. […] We conclude that Np75-4A22 can be efficacious at reducing the spread and seeding of melanoma cells in the lung when administered either before or after cell implantation.
Eight-week-old female SCID mice (Charles River Laboratories, Shrewsbury, MA, USA) were housed in groups of three to five and maintained on a 12-h light/dark schedule with a temperature of 22 °C ± 1 °C and a relative humidity of 50% ± 5%. Food and water were available ad libitum. This research study was reviewed and approved by the University of Calgary Animal Care Committee (AC22-0054) and McGill University (AUP-JGH-8269) and adheres to established ethical principles and guidelines. A875-GFPLuc (A875-NT) or A875-GFPLuc shp75 (A875-shp75) cells harvested using Puck’s EDTA were resuspended in PBS and injected intravenously into SCID mice (5 × 10^5 cells/200 μl per mouse). Np75-4A22 was dissolved in 0.5% sodium carboxymethyl cellulose (NaCMC) in reverse osmosis H2O and administered by oral gavage at 200 mg/kg/day starting one day prior to intravenous (tail vein) injection of tumor cells and continued for 3 1-week cycles (cycle: 5 days on drug, 2 days off drug). Tumor spread to the lung was monitored weekly by luciferase activity using the Xenogen IVIS-200 Optical in vivo luciferase imaging system as described previously (Lun et al, [2016]) and by immunohistochemistry (IHC) at designated time points. IHC was performed after formalin fixation, paraffin embedding and sectioning of the lungs, using a human-specific mouse polyclonal nucleolin antibody (1:500 dilution) and detected using Dako liquid DAB+ Substrate Chromogen System (Dako: k3468, California, USA) followed by a hematoxylin counterstain (Sigma, Oakville, ON, Canada). Sections were mounted and imaged on an Olympus phase contrast microscope (Olympus Life Science, Tokyo, Japan). For immunofluorescence, sections were stained with anti-human nucleolin and anti-human p75NTR antibodies (1:1000 dilution), subsequently detected with 1:200 dilutions of Alexa Fluor™ 488 Goat anti-Mouse IgG (H + L) Highly Cross-Adsorbed Secondary Antibody and Alexa Fluor™ 568 Goat anti-Rabbit IgG (H + L) Cross-Adsorbed Secondary Antibody. Sections were further stained with DAPI to detect all nuclei. Between each treatment, TBS Automation Wash Buffer (Biocare Medical TWB945M) was employed. Images were taken with LSM800 confocal microscope and ZEN system.

`Oc1ccc(-c2cncc(Nc3ccc(Br)c(Cl)c3)n2)cc1` [Div17E5] was tested, and the “GFP/OD630, A2b, single replicates” value (α2β3 integrin TMD; Div17E5 1 μM) was 111 and 92 and 98, the “GFP/OD630, A2b, mean” value (α2β3 integrin TMD; Div17E5 1 μM) was 100 and the “GFP/OD630, A2b, single replicates” value (α2β3 integrin TMD; Div17E5 2.5 μM) was 89 and 116 and 95. The “GFP/OD630, A2b, mean” value (α2β3 integrin TMD; Div17E5 2.5 μM) was 100, the “GFP/OD630, A2b, single replicates” value (α2β3 integrin TMD; Div17E5 5 μM) was 95 and 87 and 112 and the “GFP/OD630, A2b, mean” value (α2β3 integrin TMD; Div17E5 5 μM) was 98. The “GFP/OD630, A2b, single replicates” value (α2β3 integrin TMD; Div17E5 10 μM) was 81 and 96 and 87, the “GFP/OD630, A2b, mean” value (α2β3 integrin TMD; Div17E5 10 μM) was 88 and the “GFP/OD630, A2b, single replicates” value (α2β3 integrin TMD; Div17E5 20 μM) was 90 and 98 and 82. The “GFP/OD630, A2b, mean” value (α2β3 integrin TMD; Div17E5 20 μM) was 90, the “GFP/OD630, A2b, single replicates” value (α2β3 integrin TMD; Div17E5 50 μM) was 79 and 86 and 94 and the “GFP/OD630, A2b, mean” value (α2β3 integrin TMD; Div17E5 50 μM) was 86.
`Cc1cccc(-c2cncc(Nc3ccc(Br)c(Cl)c3Cl)n2)c1C` [Np75-4A22] was tested, and the “chemical shift perturbations, TNFR2 TMD” value [1] was “essentially no interaction; also recorded: no or minimal chemical shift perturbations”, the “NGF-stimulated fascin/p75NTR interaction” value [2] was “completely suppressed the effect of NGF” and the “Average Photons/second/week, wk2” value ([3]; A875-NT, group average, wk2) was 7.77E+04 Photons/second. The “Average Photons/second/week, wk3” value ([3]; A875-NT, group average, wk3) was 1.89E+05 Photons/second, the “Average Photons/second/week, wk4” value ([3]; A875-NT, group average, wk4) was 1.70E+05 Photons/second and the “Average Photons/second/week, wk5” value ([3]; A875-NT, group average, wk5) was 3.04E+05 Photons/second. For the same compound, the “Average Photons/second/week, wk6” value ([3]; A875-NT, group average, wk6) was 8.45E+05 Photons/second, the “Average Photons/second/week, wk7” value ([3]; A875-NT, group average, wk7) was 3.17E+06 Photons/second and the “Photons/second/ mouse/week, wk2” value ([3]; A875-NT, individual mouse, wk2) was 7.00E+04 Photons/second and 7.88E+04 Photons/second and 6.89E+04 Photons/second and 1.01E+05 Photons/second and 8.02E+04 Photons/second and 7.86E+04 Photons/second and 8.67E+04 Photons/second and 5.74E+04 Photons/second. For the same compound, the “Photons/second/ mouse/week, wk3” value ([3]; A875-NT, individual mouse, wk3) was 1.59E+05 Photons/second and 1.50E+05 Photons/second and 1.97E+05 Photons/second and 3.40E+05 Photons/second and 2.35E+05 Photons/second and 1.26E+05 Photons/second and 1.46E+05 Photons/second, the “Photons/second/ mouse/week, wk4” value ([3]; A875-NT, individual mouse, wk4) was 1.44E+05 Photons/second and 1.39E+05 Photons/second and 1.26E+05 Photons/second and 1.15E+05 Photons/second and 2.32E+05 Photons/second and 2.12E+05 Photons/second and 2.11E+05 Photons/second and 1.82E+05 Photons/second and the “Photons/second/ mouse/week, wk5” value ([3]; A875-NT, individual mouse, wk5) was 2.30E+05 Photons/second and 1.68E+05 Photons/second and 2.24E+05 Photons/second and 7.71E+05 Photons/second and 3.62E+05 Photons/second and 2.51E+05 Photons/second and 2.06E+05 Photons/second and 2.23E+05 Photons/second. For the same compound, the “Photons/second/ mouse/week, wk6” value ([3]; A875-NT, individual mouse, wk6) was 1.70E+05 Photons/second and 6.38E+04 Photons/second and 3.70E+05 Photons/second and 3.16E+06 Photons/second and 2.58E+06 Photons/second and 1.54E+05 Photons/second and 1.46E+05 Photons/second and 1.19E+05 Photons/second, the “Photons/second/ mouse/week, wk7” value ([3]; A875-NT, individual mouse, wk7) was 5.60E+05 Photons/second and 5.09E+05 Photons/second and 3.70E+06 Photons/second and 1.34E+07 Photons/second and 6.38E+06 Photons/second and 2.75E+05 Photons/second and 2.70E+05 Photons/second and 2.40E+05 Photons/second and the “lung tumors (bioluminescent imaging), delayed treatment” value ([3]; oral 200 mg/kg, started 3 weeks after cell injection, 4 weekly cycles) was “reducing A875-NT lung tumors to very low levels”.
